Reference: US12371428B2 (Exelixis, Inc., priority 2019, dated 2025)

Experiments:
[1] = biological target: Human KDR (residues 790-1356) (Homo sapiens (Human), UniProt P35968); assay: Human KDR kinase assay, HTRF KinEase (Example B-2); type: biochemical; details: protocol of Example B-2 (other compounds)
Procedure, shortened: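 Human KDR residues 790-1356 (0.1 ng/well) in buffer with 5 mM MgCl2, 1 mM MnCl2, 1 mM DTT, biotinylated peptide substrate, ATP at Km (4.0 μM), 3% DMSO, 10 compound concentrations; 40 min, room temperature. EDTA stop, streptavidin-XL665/Eu-TK antibody HTRF read 665/620 nm; 4-parameter IC50.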

[2] = biological target: Human MER (residues 528-999) (Homo sapiens (Human), UniProt Q12866); assay: Human Mer kinase assay, HTRF KinEase (Example C-2); type: biochemical; details: protocol of Example C-2 (other compounds)
Sequence of Human MER (residues 528-999) (Q12866 528-999): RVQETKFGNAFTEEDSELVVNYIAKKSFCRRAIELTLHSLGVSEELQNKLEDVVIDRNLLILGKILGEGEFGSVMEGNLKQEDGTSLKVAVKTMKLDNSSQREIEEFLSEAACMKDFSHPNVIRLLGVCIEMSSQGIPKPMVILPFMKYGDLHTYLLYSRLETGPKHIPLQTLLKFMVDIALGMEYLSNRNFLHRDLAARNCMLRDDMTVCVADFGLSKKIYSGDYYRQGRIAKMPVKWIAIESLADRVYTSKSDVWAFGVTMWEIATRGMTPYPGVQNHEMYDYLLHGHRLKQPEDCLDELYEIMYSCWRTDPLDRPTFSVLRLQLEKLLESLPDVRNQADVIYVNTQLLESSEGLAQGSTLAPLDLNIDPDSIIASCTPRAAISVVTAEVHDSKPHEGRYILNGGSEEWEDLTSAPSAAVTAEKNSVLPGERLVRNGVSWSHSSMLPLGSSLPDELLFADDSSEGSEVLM
Procedure, shortened: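 HTRF KinEase TK assay with MER 528-999 (1 ng/well) in enzymatic buffer plus 5 mM MgCl2 and 1 mM DTT, biotinylated peptide substrate and ATP at Km (40 μM), 3% DMSO final, 60 min at room temperature. Stopped with EDTA detection mix (SA-XL665, TK antibody-Eu3+), read at 665/620 nm after 60 min; IC50 from 10-point 4-parameter fit, normalized to DMSO and 1 μM reference.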

[3] = biological target: Human MET (residues 956-1390) (Homo sapiens (Human), UniProt P08581); assay: Human Met kinase assay, HTRF KinEase (Example D-2); type: biochemical; details: protocol of Example D-2 (other compounds); read-out: c-Met IC50
Sequence of Human MET (residues 956-1390) (P08581 956-1390): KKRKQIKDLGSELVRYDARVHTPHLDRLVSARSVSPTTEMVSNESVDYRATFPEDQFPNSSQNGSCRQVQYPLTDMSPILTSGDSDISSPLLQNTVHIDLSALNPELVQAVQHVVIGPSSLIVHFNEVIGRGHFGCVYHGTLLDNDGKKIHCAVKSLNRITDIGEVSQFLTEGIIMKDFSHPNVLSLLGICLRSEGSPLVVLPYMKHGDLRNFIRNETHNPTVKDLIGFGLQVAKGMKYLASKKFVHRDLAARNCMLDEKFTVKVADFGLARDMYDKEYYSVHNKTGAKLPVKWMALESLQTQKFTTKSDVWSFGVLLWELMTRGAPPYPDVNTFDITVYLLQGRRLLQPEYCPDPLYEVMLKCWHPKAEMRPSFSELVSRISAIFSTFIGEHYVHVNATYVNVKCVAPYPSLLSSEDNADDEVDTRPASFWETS
Procedure, shortened: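 HTRF KinEase assay on MET residues 956-1390 (0.1 ng/well) in buffer with 5 mM MgCl2, 1 mM DTT and 1 mM MnCl2, with biotinylated peptide substrate, ATP at Km, 10 compound concentrations and 3% DMSO final, run 40 min at room temperature. The […] signal was normalized to DMSO and to 1 μM reference compound, and IC50 came from a 4-parameter logistic fit.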

[4] = biological target: KDR (phospho-KDR, VEGF165-stimulated HUVEC cells) (Homo sapiens (Human), UniProt P35968); assay: KDR autophosphorylation ELISA in HUVEC cells (Example G); type: cell-based; details: cellular activity; KDR autophosphorylation ELISA in HUVEC cells
Sequence of KDR (phospho-KDR, VEGF165-stimulated HUVEC cells) (P35968 20-1356): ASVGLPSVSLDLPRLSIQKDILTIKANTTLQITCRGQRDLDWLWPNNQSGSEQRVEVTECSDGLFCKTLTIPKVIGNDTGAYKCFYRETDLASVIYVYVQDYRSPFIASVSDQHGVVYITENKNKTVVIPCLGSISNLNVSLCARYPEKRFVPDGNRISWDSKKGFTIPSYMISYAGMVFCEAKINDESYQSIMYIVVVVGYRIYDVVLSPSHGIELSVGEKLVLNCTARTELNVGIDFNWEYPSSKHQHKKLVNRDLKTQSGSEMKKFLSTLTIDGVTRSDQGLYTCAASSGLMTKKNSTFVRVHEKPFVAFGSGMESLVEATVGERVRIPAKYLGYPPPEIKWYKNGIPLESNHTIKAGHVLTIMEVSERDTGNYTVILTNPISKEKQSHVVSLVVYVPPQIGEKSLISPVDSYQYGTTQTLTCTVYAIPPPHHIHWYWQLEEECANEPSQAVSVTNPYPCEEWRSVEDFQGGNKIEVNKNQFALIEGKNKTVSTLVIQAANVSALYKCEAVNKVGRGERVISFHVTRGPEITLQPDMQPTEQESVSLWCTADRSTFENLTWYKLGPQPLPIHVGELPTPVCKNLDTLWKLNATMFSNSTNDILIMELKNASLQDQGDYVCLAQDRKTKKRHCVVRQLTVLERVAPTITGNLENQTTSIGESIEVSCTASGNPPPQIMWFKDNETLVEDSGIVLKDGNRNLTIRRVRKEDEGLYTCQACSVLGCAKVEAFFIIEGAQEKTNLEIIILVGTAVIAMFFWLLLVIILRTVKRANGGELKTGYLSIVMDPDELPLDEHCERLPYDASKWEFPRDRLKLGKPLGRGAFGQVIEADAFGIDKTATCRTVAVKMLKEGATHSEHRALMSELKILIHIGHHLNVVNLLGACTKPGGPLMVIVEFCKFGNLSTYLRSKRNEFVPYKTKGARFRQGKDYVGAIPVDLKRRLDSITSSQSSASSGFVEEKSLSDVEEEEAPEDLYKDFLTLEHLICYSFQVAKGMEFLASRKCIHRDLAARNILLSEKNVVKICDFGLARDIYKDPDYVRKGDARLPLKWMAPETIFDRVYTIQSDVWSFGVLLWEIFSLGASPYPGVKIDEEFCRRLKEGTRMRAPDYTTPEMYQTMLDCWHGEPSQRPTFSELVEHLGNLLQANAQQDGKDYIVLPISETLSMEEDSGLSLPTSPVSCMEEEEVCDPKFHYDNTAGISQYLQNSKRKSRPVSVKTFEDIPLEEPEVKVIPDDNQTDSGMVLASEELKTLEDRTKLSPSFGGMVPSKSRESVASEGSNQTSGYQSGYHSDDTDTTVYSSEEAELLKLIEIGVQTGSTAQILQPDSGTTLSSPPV
Procedure, shortened: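 HUVECs were serum-starved 24 h, given compound as an 8-point dilution series (0.3% DMSO final) for 1 h, then stimulated with 100 ng/mL VEGF165 for 5 min. Lysate phospho-KDR was quantified by sandwich ELISA against a phospho-KDR standard, and IC50s came from a 4-parameter logistic fit.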

Sequence of Human KDR (residues 790-1356) (P35968 790-1356): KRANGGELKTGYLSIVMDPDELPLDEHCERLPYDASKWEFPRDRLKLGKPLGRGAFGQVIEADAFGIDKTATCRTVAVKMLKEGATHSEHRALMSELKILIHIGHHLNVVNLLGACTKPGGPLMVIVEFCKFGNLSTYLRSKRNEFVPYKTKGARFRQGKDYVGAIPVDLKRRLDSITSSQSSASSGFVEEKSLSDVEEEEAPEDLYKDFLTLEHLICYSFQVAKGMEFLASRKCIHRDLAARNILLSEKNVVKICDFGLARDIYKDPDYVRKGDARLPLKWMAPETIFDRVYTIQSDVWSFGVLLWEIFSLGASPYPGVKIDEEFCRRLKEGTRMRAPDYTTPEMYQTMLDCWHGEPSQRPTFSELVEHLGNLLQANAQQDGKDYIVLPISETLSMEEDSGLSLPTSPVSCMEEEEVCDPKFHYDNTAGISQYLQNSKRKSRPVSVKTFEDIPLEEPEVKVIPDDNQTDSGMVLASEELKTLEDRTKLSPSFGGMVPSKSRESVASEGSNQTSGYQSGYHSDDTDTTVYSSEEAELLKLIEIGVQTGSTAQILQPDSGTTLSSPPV

| SMILES | IC50 [1] | IC50 [2] | IC50 [3] | IC50 [4] |
| --- | --- | --- | --- | --- |
| Cc1nc2c(Oc3ccc(NC(=O)c4cn(C(C)C)c(C)c(-c5ccc(F)cc5)c4=O)cc3F)ccnc2cc1Br [Compound 153, N-[4-[(7-Bromo-6-methyl-1,5-naphthyridin-4-yl)oxy]-3-fluorophenyl]-5-(4-fluorophenyl)-6-methyl-4-oxo-1-propan-2-ylpyridine-3-carboxamide] | > 300 nM | < 100 nM | < 100 nM | > 300 nM |
| COc1cc2nccc(Oc3ccc(NC(=O)c4cnc(C(C)(C)C)c(-c5ccc(F)cc5)c4O)cc3F)c2nc1OC [Compound 155, 6-tert-Butyl-N-[4-[(6,7-dimethoxy-1,5-naphthyridin-4-yl)oxy]-3-fluorophenyl]-5-(4-fluorophenyl)-4-hydroxypyridine-3-carboxamide] | > 300 nM | < 100 nM | < 100 nM | > 300 nM |
| COc1cnc2c(Oc3ccc(NC(=O)c4cn(C)c(C)c(-c5ccc(F)cc5)c4=O)cc3F)ccnc2c1 [Compound 156, N-[3-Fluoro-4-[(7-methoxy-1,5-naphthyridin-4-yl)oxy]phenyl]-5-(4-fluorophenyl)-1,6-dimethyl-4-oxopyridine-3-carboxamide] | > 300 nM | < 100 nM | < 100 nM | > 300 nM |
| COc1cc2nccc(Oc3ccc(NC(=O)c4cn(CCN5CCOCC5)cc(-c5ccc(F)cc5)c4=O)cc3F)c2nc1OC [Compound 157, N-[4-[(6,7-Dimethoxy-1,5-naphthyridin-4-yl)oxy]-3-fluorophenyl]-5-(4-fluorophenyl)-1-(2-morpholin-4-ylethyl)-4-oxopyridine-3-carboxamide] | > 300 nM | < 100 nM | < 100 nM | 100 to 300 nM |
| Cc1c(-c2ccc(F)cc2)c(=O)c(C(=O)Nc2ccc(Oc3ccnc4cc(F)cnc34)c(F)c2)cn1C(C)C [Compound 162, N-[3-Fluoro-4-[(7-fluoro-1,5-naphthyridin-4-yl)oxy]phenyl]-5-(4-fluorophenyl)-6-methyl-4-oxo-1-propan-2-ylpyridine-3-carboxamide] | > 300 nM | 100 to 300 nM | < 100 nM | > 300 nM |
| CCn1cc(C(=O)Nc2ccc(Oc3ccnc4cc(OC)cnc34)cc2)c(=O)c(-c2ccc(F)cc2)c1C [Compound 163, 1-Ethyl-5-(4-fluorophenyl)-N-[4-[(7-methoxy-1,5-naphthyridin-4-yl)oxy]phenyl]-6-methyl-4-oxopyridine-3-carboxamide] | > 300 nM | < 100 nM | < 100 nM | > 300 nM |
| CCn1cc(C(=O)Nc2ccc(Oc3ccnc4cc(OC)cnc34)c(F)c2)c(=O)c(-c2ccc(F)cc2)c1C [Compound 164, 1-Ethyl-N-[3-fluoro-4-[(7-methoxy-1,5-naphthyridin-4-yl)oxy]phenyl]-5-(4-fluorophenyl)-6-methyl-4-oxopyridine-3-carboxamide] | > 300 nM | < 100 nM | < 100 nM | > 300 nM |
| COc1cnc2c(Oc3ccc(NC(=O)c4cn(C(C)(C)C)c(C)c(-c5ccc(F)cc5)c4=O)cc3F)ccnc2c1 [Compound 166, 1-tert-Butyl-N-[3-fluoro-4-[(7-methoxy-1,5-naphthyridin-4-yl)oxy]phenyl]-5-(4-fluorophenyl)-6-methyl-4-oxopyridine-3-carboxamide] | > 300 nM | < 100 nM | < 100 nM | > 300 nM |
| CCn1cc(C(=O)Nc2ccc(Oc3ccnc4cc(OC)cnc34)cc2)c(=O)c(-c2ccc(F)cc2)c1 [Compound 169, 1-Ethyl-5-(4-fluorophenyl)-N-[4-[(7-methoxy-1,5-naphthyridin-4-yl)oxy]phenyl]-4-oxopyridine-3-carboxamide] | > 300 nM | < 100 nM | < 100 nM | > 300 nM |
| CCn1cc(C(=O)Nc2ccc(Oc3ccnc4cc(OC)cnc34)c(F)c2)c(=O)c(-c2ccc(F)cc2)c1 [Compound 170, 1-Ethyl-N-[3-fluoro-4-[(7-methoxy-1,5-naphthyridin-4-yl)oxy]phenyl]-5-(4-fluorophenyl)-4-oxopyridine-3-carboxamide] | > 300 nM | < 100 nM | < 100 nM | > 300 nM |

Second part, the molecule after the results:

| IC50 [1] | IC50 [2] | IC50 [3] | IC50 [4] | SMILES |
| --- | --- | --- | --- | --- |
| < 100 nM | < 100 nM | < 100 nM | < 100 nM | COCCOc1nc2c(Oc3ccc(NC(=O)c4cnc(C)c(-c5ccc(F)cc5C)c4O)cc3F)ccnc2cc1OC [Compound 144, N-[3-Fluoro-4-[[7-methoxy-6-(2-methoxyethoxy)-1,5-naphthyridin-4-yl]oxy]phenyl]-5-(4-fluoro-2-methylphenyl)-4-hydroxy-6-methylpyridine-3-carboxamide] |
| < 100 nM | < 100 nM | < 100 nM | < 100 nM | COc1cnc2c(Oc3ccc(NC(=O)c4cncc(-c5ccc(F)cc5)c4O)cc3)ccnc2c1 [Compound 146, 5-(4-Fluorophenyl)-4-hydroxy-N-[4-[(7-methoxy-1,5-naphthyridin-4-yl)oxy]phenyl]pyridine-3-carboxamide] |
| > 300 nM | < 100 nM | < 100 nM | > 300 nM | COc1cnc2c(Oc3ccc(NC(=O)c4cn(C(C)C)c(C)c(-c5ccc(F)cc5)c4=O)cc3)ccnc2c1 [Compound 148, 5-(4-Fluorophenyl)-N-[4-[(7-methoxy-1,5-naphthyridin-4-yl)oxy]phenyl]-6-methyl-4-oxo-1-propan-2-ylpyridine-3-carboxamide] |
| > 300 nM | < 100 nM | < 100 nM | < 100 nM | Cc1ncc(C(=O)Nc2ccc(Oc3ccnc4cc(C(F)(F)F)cnc34)c(F)c2)c(O)c1-c1ccc(F)cc1 [Compound 151, 5-(4-Fluorophenyl)-N-[3-fluoro-4-[[7-(trifluoromethyl)-1,5-naphthyridin-4-yl]oxy]phenyl]-4-hydroxy-6-methylpyridine-3-carboxamide] |
| 100 to 300 nM | < 100 nM | < 100 nM | < 100 nM | CCn1cc(C(=O)Nc2ccc(Oc3ccnc4cc(OC)c(OC)nc34)cc2)c(=O)c(-c2ccc(F)cc2)c1 [Compound 167, N-[4-[(6,7-Dimethoxy-1,5-naphthyridin-4-yl)oxy]phenyl]-1-ethyl-5-(4-fluorophenyl)-4-oxopyridine-3-carboxamide] |
| 100 to 300 nM | < 100 nM | < 100 nM | 100 to 300 nM | CCn1cc(C(=O)Nc2ccc(Oc3ccnc4cc(OC)c(OC)nc34)cc2)c(=O)c(-c2ccc(F)cc2)c1C [Compound 168, N-[4-[(6,7-Dimethoxy-1,5-naphthyridin-4-yl)oxy]phenyl]-1-ethyl-5-(4-fluorophenyl)-6-methyl-4-oxopyridine-3-carboxamide] |
| < 100 nM | < 100 nM | < 100 nM | < 100 nM | COc1cc2nccc(Oc3ccc(NC(=O)c4cnc(C)c(-c5ccc(F)cc5)c4O)cc3)c2cc1OC [Compound 171, N-[4-(6,7-Dimethoxyquinolin-4-yl)oxyphenyl]-5-(4-fluorophenyl)-4-hydroxy-6-methylpyridine-3-carboxamide] |
| 100 to 300 nM | < 100 nM | < 100 nM | < 100 nM | COc1ccc2nccc(Oc3ccc(NC(=O)c4cnc(C)c(-c5ccc(F)cc5)c4O)cc3F)c2n1 [Compound 172, N-[3-Fluoro-4-[(6-methoxy-1,5-naphthyridin-4-yl)oxy]phenyl]-5-(4-fluorophenyl)-4-hydroxy-6-methylpyridine-3-carboxamide] |
| < 100 nM | < 100 nM | < 100 nM | < 100 nM | COc1cc2nccc(Oc3ccc(NC(=O)c4c(C)nc(C)c(-c5ccc(F)cc5)c4O)cc3)c2nc1OC [Compound 173, N-[4-[(6,7-Dimethoxy-1,5-naphthyridin-4-yl)oxy]phenyl]-5-(4-fluorophenyl)-4-hydroxy-2,6-dimethylpyridine-3-carboxamide] |
| < 100 nM | < 100 nM | < 100 nM | < 100 nM | COc1cc2nccc(Oc3ccc(NC(=O)c4cnc(C)c(-c5ccc(F)cc5C)c4O)cc3)c2nc1OC [Compound 174, N-[4-[(6,7-Dimethoxy-1,5-naphthyridin-4-yl)oxy]phenyl]-5-(4-fluoro-2-methylphenyl)-4-hydroxy-6-methylpyridine-3-carboxamide] |
| 100 to 300 nM | < 100 nM | < 100 nM | < 100 nM | COc1cnc2c(Oc3ccc(NC(=O)c4cnc(C)c(-c5ccc(F)cc5C)c4O)cc3F)ccnc2c1 [Compound 175, N-[3-Fluoro-4-[(7-methoxy-1,5-naphthyridin-4-yl)oxy]phenyl]-5-(4-fluoro-2-methylphenyl)-4-hydroxy-6-methylpyridine-3-carboxamide] |
